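Cultured in 96-well plates, cells were exposed to test compound for 48 hours across five concentrations. GI50: concentration for 50% inhibition of growth.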 Activity calls are given as the source filed them. No stated cut-off is given here; in the data, active = GI50 up to about 1.1 µM and inactive = higher.
How the values were obtained:
Assay in all cases: growth of human tumour cells (NCI), 48 h
786-0 = system: 786-0
A549 = system: A549
ACHN = system: ACHN
CAKI-1 = system: CAKI-1
DLD-1 = system: DLD-1
DMS-273 = system: DMS-273
EKVX = system: EKVX
HCC 2998 = system: HCC 2998
HCT-116 = system: HCT-116
HCT-15 = system: HCT-15
HOP-62 = system: HOP-62
HOP-92 = system: HOP-92
HT-29 = system: HT-29
IGROV-1 = system: IGROV-1
KM-20L2 = system: KM-20L2
KM12 = system: KM12
LOX IMVI = system: LOX IMVI
LXFL 529 = system: LXFL 529
M14 = system: M14
M19-MEL = system: M19-MEL
NCI-H23 = system: NCI-H23
NCI-H460 = system: NCI-H460
NCI-H522 = system: NCI-H522
OVCAR-3 = system: OVCAR-3
OVCAR-4 = system: OVCAR-4
OVCAR-8 = system: OVCAR-8
SF-268 = system: SF-268
SF-295 = system: SF-295
SF-539 = system: SF-539
SK-MEL-28 = system: SK-MEL-28
SK-MEL-2 = system: SK-MEL-2
SK-MEL-5 = system: SK-MEL-5
SN12C = system: SN12C
SNB-19 = system: SNB-19
SNB-78 = system: SNB-78
SW-620 = system: SW-620
TK-10 = system: TK-10
U-251 = system: U-251
UACC-257 = system: UACC-257
UACC-62 = system: UACC-62
UO-31 = system: UO-31
A498 = system: A498
BT-549 = system: BT-549
CCRF-CEM = system: CCRF-CEM
COLO 205 = system: COLO 205
DU-145 = system: DU-145
HL-60 = system: HL-60
Hs-578T = system: Hs-578T
K562 = system: K562
MCF7 = system: MCF7
MDA-MB-231 = system: MDA-MB-231
MDA-MB-435 = system: MDA-MB-435
MDA-N = system: MDA-N
MOLT-4 = system: MOLT-4
Malme-3M = system: Malme-3M
NCI-H226 = system: NCI-H226
NCI/ADR-RES = system: NCI/ADR-RES
OVCAR-5 = system: OVCAR-5
PC-3 = system: PC-3
RPMI-8226 = system: RPMI-8226
RXF 393 = system: RXF 393
SK-OV-3 = system: SK-OV-3
SNB-75 = system: SNB-75
SR = system: SR
T47D = system: T47D

Q: Which results are given for `Cc1ccc(C(=O)NC(C)C)cc1/N=N/N(C)C`?
A: GI50 (786-0): > 100 µM (inactive); GI50 (A549): > 100 µM (inactive); GI50 (ACHN): > 100 µM (inactive); GI50 (CAKI-1): > 100 µM (inactive); GI50 (DLD-1): 65 µM (inactive); GI50 (DMS-273): > 100 µM (inactive); GI50 (EKVX): > 100 µM (inactive); GI50 (HCC 2998): > 100 µM (inactive); GI50 (HCT-116): > 100 µM (inactive); GI50 (HCT-15): > 100 µM; GI50 (HOP-62): > 100 µM (inactive); GI50 (HOP-92): > 100 µM (inactive); GI50 (HT-29): > 100 µM (inactive); GI50 (IGROV-1): > 100 µM (inactive); GI50 (KM-20L2): > 100 µM (inactive); GI50 (KM12): > 100 µM (inactive); GI50 (LOX IMVI): > 100 µM (inactive); GI50 (LXFL 529): > 100 µM (inactive); GI50 (M14): > 100 µM (inactive); GI50 (M19-MEL): > 100 µM (inactive); GI50 (NCI-H23): > 100 µM (inactive); GI50 (NCI-H460): > 100 µM (inactive); GI50 (NCI-H522): > 100 µM (inactive); GI50 (OVCAR-3): > 100 µM (inactive); GI50 (OVCAR-4): > 100 µM (inactive); GI50 (OVCAR-8): > 100 µM (inactive); GI50 (SF-268): > 100 µM (inactive); GI50 (SF-295): > 100 µM (inactive); GI50 (SF-539): > 100 µM (inactive); GI50 (SK-MEL-28): > 100 µM (inactive); GI50 (SK-MEL-2): > 100 µM (inactive); GI50 (SK-MEL-5): > 100 µM (inactive); GI50 (SN12C): > 100 µM (inactive); GI50 (SNB-19): > 100 µM (inactive); GI50 (SNB-78): > 100 µM (inactive); GI50 (SW-620): > 100 µM (inactive); GI50 (TK-10): > 100 µM (inactive); GI50 (U-251): > 100 µM (inactive); GI50 (UACC-257): > 100 µM (inactive); GI50 (UACC-62): > 100 µM (inactive); GI50 (UO-31): > 100 µM (inactive)

Q: What does the source list for `CC(C)=CCC[C@](C)(O)[C@H]1CC[C@]2(C)[C@@H]1[C@H](O)C[C@@H]1[C@@]3(C)CC[C@H](O[C@@H]4O[C@H](CO)[C@@H](O)[C@H](O)[C@H]4O)C(C)(C)[C@@H]3CC[C@]12C` [GINSENOSIDE RH2]?
A: GI50 (786-0): 20.2 µM (inactive); GI50 (A498): 19.8 µM (inactive); GI50 (A549): 18.8 µM (inactive); GI50 (ACHN): 17.8 µM (inactive); GI50 (BT-549): 18 µM (inactive); GI50 (CAKI-1): 18.7 µM (inactive); GI50 (CCRF-CEM): 23.5 µM (inactive); GI50 (COLO 205): 19.5 µM (inactive); GI50 (DU-145): 19.5 µM (inactive); GI50 (EKVX): 22.7 µM (inactive); GI50 (HCC 2998): 27.9 µM (inactive); GI50 (HCT-116): 26.2 µM (inactive); GI50 (HCT-15): 17.5 µM; GI50 (HL-60): 21 µM (inactive); GI50 (HOP-62): 32.6 µM (inactive); GI50 (HOP-92): 18.7 µM (inactive); GI50 (HT-29): 15.5 µM (inactive); GI50 (Hs-578T): 21.9 µM (inactive); GI50 (IGROV-1): 16.3 µM (inactive); GI50 (K562): 19.8 µM (inactive); GI50 (KM12): 17.6 µM (inactive); GI50 (LOX IMVI): 29 µM (inactive); GI50 (M14): 27.2 µM (inactive); GI50 (MCF7): 17.3 µM (inactive); GI50 (MDA-MB-231): 18.2 µM (inactive); GI50 (MDA-MB-435): 18.2 µM (inactive); GI50 (MDA-N): 19.8 µM (inactive); GI50 (MOLT-4): 17.1 µM (inactive); GI50 (Malme-3M): 18.4 µM (inactive); GI50 (NCI-H226): 17.6 µM (inactive); GI50 (NCI-H23): 20.6 µM (inactive); GI50 (NCI-H460): 16.6 µM (inactive); GI50 (NCI-H522): 17.2 µM (inactive); GI50 (NCI/ADR-RES): 25.1 µM (inactive); GI50 (OVCAR-3): 17.9 µM (inactive); GI50 (OVCAR-4): 21.5 µM (inactive); GI50 (OVCAR-5): 26.2 µM (inactive); GI50 (OVCAR-8): 17.9 µM (inactive); GI50 (PC-3): 17.6 µM (inactive); GI50 (RPMI-8226): 19.1 µM (inactive); GI50 (RXF 393): 17 µM (inactive); GI50 (SF-268): 15.8 µM (inactive); GI50 (SF-295): 23 µM (inactive); GI50 (SF-539): 22.2 µM (inactive); GI50 (SK-MEL-28): 19.9 µM (inactive); GI50 (SK-MEL-2): 15.9 µM (inactive); GI50 (SK-MEL-5): 18.1 µM (inactive); GI50 (SK-OV-3): 18.5 µM (inactive); GI50 (SN12C): 16.7 µM (inactive); GI50 (SNB-19): 20 µM (inactive); GI50 (SNB-75): 19.1 µM (inactive); GI50 (SR): 14 µM (inactive); GI50 (SW-620): 19.5 µM (inactive); GI50 (T47D): 18.2 µM (inactive); GI50 (TK-10): 21.4 µM (inactive); GI50 (U-251): 17.7 µM (inactive); GI50 (UACC-257): 20.9 µM (inactive); GI50 (UACC-62): 16.6 µM (inactive); GI50 (UO-31): 17.4 µM (inactive)
